Data taken from patent US20250206729A1, “DUAL RAF AND TUBULIN INHIBITORS AND METHODS OF USE THEREOF” (Deciphera Pharmaceuticals, LLC, priority 2023, published 2025).
Read-outs that look alike come from different tables or passages of the source.

Key:
MiaPaca-2 cells = test: MiaPaca-2 cell proliferation assay; format: cell-based; conditions: Homo sapiens, MIA PaCa-2
[1] = molecular target: T1, C-Raf kinase (SEQ ID NO: 2) (Homo sapiens, UniProt P04049, Y340D/Y341D); test: Biochemical assay for C-Raf (coupled pyruvate kinase/lactate dehydrogenase)
T1 construct: C-Raf residues 306-end; Y340D, Y341D with N-; GST (N); purchased Sigma

[2] = test system: tubulin polymerization in HCT-116 cells; test: Cellular tubulin polymerization assay (HCT-116 cells); format: cell-based; conditions: Table 4; HCT-116 cells; read-out: Tubulin Cellular
Protocol: HCT-116 cells (catalog #CCL-247) are obtained from the American Type Culture Collect (ATCC, Manassas, VA). Briefly, cells are grown in McCoy's 5A supplemented with 10% characterized fetal bovine serum (Invitrogen, Carlsbad, CA) and 1% Penicillin/Streptomycin/L-Glutamine at 37° C., 5% CO2, and 95% humidity. Cells are expanded until reaching 70-95% confluency at which point they are sub-cultured or harvested for assay use. 450000 cells are added per well in 1500 μL complete growth medium in a tissue culture treated, 12-well plate. Plates are incubated for 18 to 24 h at 37° C., 5% CO2, and 95% humidity. At the end of the incubation, 2000 μL of base culture media is added to each well, followed by a serial dilution of compound. Plates are incubated for an additional 1 h at 37° C., 5% CO2, and 95% humidity. Lysates are generated by the addition of 100 μL Lysis and Microtubule Stabilization Buffer 1 (LMSO1, Cytoskeleton Inc, Denver, CO) supplemented with GTP (BST06, Cytoskeleton Inc), ATP (BSA04, Cytoskeleton Inc), and Protease Inhibitor Cocktail Stock (PIC02, Cytoskeleton Inc). Cells are scraped off wells using a rubber cell scraper and collected in a clean 96-well plate. Lysates are centrifuged at 1000× g, 37° C. for 10 min and supernatant fraction is placed into an additional 96-well plate. The remaining pellet fraction is reconstituted in 100 μL LMS01 buffer and sonicated for 10 min. Pellet and Supernatant fractions are probed for α-tubulin via western blot analysis on the Jess System or equivalent (Bio-techne, Minneapolis, MN). Data is analyzed using Prism software (Graphpad, San Diego, CA) to calculate IC50 values.

HCT-116 cells = test: HCT-116 cell proliferation assay; format: cell-based; conditions: Homo sapiens
HPAF-II cells = test: HPAF-II cell proliferation assay; format: cell-based; conditions: Homo sapiens
[3] = molecular target: T2, B-Raf kinase (SEQ ID NO: 1) (Homo sapiens, UniProt P15056); test: Biochemical assay for B-Raf (coupled pyruvate kinase/lactate dehydrogenase)
T2 construct: GST (N); purchased Sigma

Pa16c cells = test: Pa16c cell proliferation assay; format: cell-based; conditions: 67 to 72 h incubation, resazurin; read-out: Pa16c (inhibition of cell proliferation, IC50)
[4] = 67-72 h incubation, resazurin, read-out: MiaPaca-2 (inhibition of cell proliferation, IC50)
[5] = 1 mM ATP, read-out: CRAF (inhibition of biochemical activity, IC50)
[6] = HCT-116, 67 to 72 h incubation, resazurin, read-out: HCT-116 (inhibition of cell proliferation, IC50)
[7] = HPAF-II, 115 to 120 h incubation, resazurin, read-out: HPAF-II (inhibition of cell proliferation, IC50)
[8] = 1 mM ATP, read-out: BRAF (inhibition of biochemical activity, IC50)

T1 sequence (P04049 307-648 Y340D/Y341D): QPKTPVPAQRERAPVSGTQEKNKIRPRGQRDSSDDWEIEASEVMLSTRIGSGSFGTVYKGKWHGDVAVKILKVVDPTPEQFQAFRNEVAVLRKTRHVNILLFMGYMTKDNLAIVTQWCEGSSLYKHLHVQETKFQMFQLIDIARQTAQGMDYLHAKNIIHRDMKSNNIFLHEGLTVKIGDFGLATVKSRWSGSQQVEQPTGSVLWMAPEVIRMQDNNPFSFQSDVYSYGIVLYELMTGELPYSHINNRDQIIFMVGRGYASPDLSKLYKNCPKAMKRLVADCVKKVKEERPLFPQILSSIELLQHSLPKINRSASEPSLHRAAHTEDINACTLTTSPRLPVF
T2 sequence (P15056 416-766): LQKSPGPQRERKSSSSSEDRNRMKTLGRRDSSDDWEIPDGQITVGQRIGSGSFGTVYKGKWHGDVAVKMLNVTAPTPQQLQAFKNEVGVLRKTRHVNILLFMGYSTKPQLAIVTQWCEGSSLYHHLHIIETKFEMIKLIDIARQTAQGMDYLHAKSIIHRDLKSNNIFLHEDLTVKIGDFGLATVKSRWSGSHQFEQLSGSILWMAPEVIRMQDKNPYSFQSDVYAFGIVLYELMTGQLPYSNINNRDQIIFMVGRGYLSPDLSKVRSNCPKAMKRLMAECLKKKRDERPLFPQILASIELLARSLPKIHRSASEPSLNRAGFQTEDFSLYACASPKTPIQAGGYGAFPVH

Row | SMILES | IC50 (MiaPaca-2 cells; Table 4, mutant KRAS pancreatic cancer cell line, anti-proliferative, read-out: MiaPaca-2) [nM] | IC50 ([1]; Table 4, read-out: CRAF) [nM] | IC50 [2] [nM] | IC50 (HCT-116 cells; Table 4, mutant KRAS colorectal cancer cell line, anti-proliferative, read-out: HCT-116) [nM] | IC50 (HPAF-II cells; Table 4, mutant KRAS pancreatic cancer cell line, anti-proliferative, read-out: HPAF-II) [nM] | IC50 ([3]; Table 4, read-out: BRAF) [nM] | IC50 (MiaPaca-2 cells; [4]) [nM] | IC50 [1, 5] [nM] | IC50 (Pa16c cells) [nM] | IC50 (HCT-116 cells; [6]) [nM] | IC50 (HPAF-II cells; [7]) [nM] | IC50 [3, 8] [nM]
1 | Cc1ccc2c(Nc3cccc(Cl)c3F)nccc2c1NC(=O)c1csc2c(N)ncnc12 [Belvarafenib, reference compound] | 1000 to 10000 | < 100 | 1000 to 10000 | 500 to 1000 | 1000 to 10000 | < 100 |  |  |  |  |  | 
2 | Cc1ccc(NC(=O)c2cnc(N)nc2)cc1-c1cc(N[C@H](C)CO)nc(N2CCOCC2)c1 [Example 68] |  |  |  |  |  |  | 1000 to 10000 | 500 to 1000 | 1000 to 10000 | 1000 to 10000 | 1000 to 10000 | 1000 to 10000
3 | Cc1ccc(NC(=O)c2cnc(Br)nc2)cc1-c1cc(N[C@H](C)CO)nc(N2CCOCC2)c1 [Example 69] |  |  |  |  |  |  | 1000 to 10000 | 1000 to 10000 | 1000 to 10000 | 1000 to 10000 | 1000 to 10000 | 1000 to 10000
4 | Cc1ccc(NC(=O)c2cc(C3CC3)cnn2)cc1-c1cc(N[C@H](C)CO)nc(N2CCOCC2)c1 [Example 70] |  |  |  |  |  |  | < 100 | < 100 | < 100 | < 100 | < 100 | < 100
5 | Cc1ccc(NC(=O)c2cc(Cl)cnn2)cc1-c1ccnc(N2CCOCC2)n1 [Example 71] |  |  |  |  |  |  | 100 to 500 | 1000 to 10000 | 1000 to 10000 | 1000 to 10000 | 1000 to 10000 | 1000 to 10000
6 | Cc1ccc(NC(=O)c2cc(C(C)C)cnn2)cc1-c1cc(N2CCOCC2)ncn1 [Example 72] |  |  |  |  |  |  | 1000 to 10000 | 100 to 500 | 1000 to 10000 | 1000 to 10000 | 1000 to 10000 | 100 to 500
7 | Cc1ccc(NC(=O)c2cc(C(C)C)cnn2)cc1-c1ccnc(N2CCOCC2)n1 [Example 73] |  |  |  |  |  |  | 1000 to 10000 | 100 to 500 | 1000 to 10000 | 500 to 1000 | 1000 to 10000 | 1000 to 10000
8 | Cc1ccc(NC(=O)c2cc(Cl)cnn2)cc1-c1cc(N2CCOCC2)ncn1 [Example 74] |  |  |  |  |  |  | 1000 to 10000 | 1000 to 10000 | 1000 to 10000 | 1000 to 10000 | 1000 to 10000 | 1000 to 10000
9 | Cc1ccc(NC(=O)c2cc(Cl)cnn2)cc1-c1cccc(N2CCOCC2)c1 [Example 75] |  |  |  |  |  |  | 1000 to 10000 | 1000 to 10000 | 1000 to 10000 | 1000 to 10000 | 1000 to 10000 | 1000 to 10000
10 | Cc1ccc(NC(=O)c2cc(C(C)C)cnn2)cc1-c1cccc(N2CCOCC2)c1 [Example 76] |  |  |  |  |  |  | 1000 to 10000 | < 100 | 1000 to 10000 | 1000 to 10000 | 1000 to 10000 | 100 to 500
11 | Cc1ccc(NC(=O)c2cc(Cl)cnn2)cc1-c1cncc(N2CCOCC2)c1 [Example 77] |  |  |  |  |  |  | 1000 to 10000 | 1000 to 10000 | 1000 to 10000 | 1000 to 10000 | 1000 to 10000 | 1000 to 10000
12 | Cc1ccc(NC(=O)c2cc(Br)cnn2)cc1-c1cc(OCCO)nc(N2CCOCC2)c1 [Example 78] |  |  |  |  |  |  | 500 to 1000 | < 100 | 1000 to 10000 | 500 to 1000 | 1000 to 10000 | 100 to 500
13 | Cc1ccc(NC(=O)c2cc(C(C)C)cnn2)cc1-c1cncc(N2CCOCC2)c1 [Example 79] |  |  |  |  |  |  | 1000 to 10000 | < 100 | 1000 to 10000 | 1000 to 10000 | 1000 to 10000 | 100 to 500
14 | Cc1ccc(NC(=O)c2cc(C(N)=O)cnn2)cc1-c1cc(N[C@H](C)CO)nc(N2CCOCC2)c1 [Example 80] |  |  |  |  |  |  | 100 to 500 | 500 to 1000 | 1000 to 10000 | 500 to 1000 | 1000 to 10000 | 1000 to 10000
